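Dose response: 5 concentrations. Exposure: 48 h. Format: 96-well plates. Endpoint: linear interpolation; highest concentration if not reached. At the GI50, growth is halved.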 Active and inactive are the calls of the source. Cut-off read from the data, not from the text of the source: active = GI50 up to about 1.1 µM and inactive = higher.
What was measured:
Assay in all cases: NCI tumour cell line growth inhibition, 48 h
786-0 = test system: 786-0
A549 = test system: A549
ACHN = test system: ACHN
CAKI-1 = test system: CAKI-1
CCRF-CEM = test system: CCRF-CEM
COLO 205 = test system: COLO 205
DLD-1 = test system: DLD-1
DMS-114 = test system: DMS-114
DMS-273 = test system: DMS-273
HCC 2998 = test system: HCC 2998
HCT-116 = test system: HCT-116
HL-60 = test system: HL-60
HOP-18 = test system: HOP-18
HOP-62 = test system: HOP-62
HOP-92 = test system: HOP-92
HT-29 = test system: HT-29
IGROV-1 = test system: IGROV-1
K562 = test system: K562
KM12 = test system: KM12
LOX IMVI = test system: LOX IMVI
LXFL 529 = test system: LXFL 529
M14 = test system: M14
M19-MEL = test system: M19-MEL
MOLT-4 = test system: MOLT-4
Malme-3M = test system: Malme-3M
NCI-H23 = test system: NCI-H23
NCI-H460 = test system: NCI-H460
NCI-H522 = test system: NCI-H522
OVCAR-3 = test system: OVCAR-3
OVCAR-4 = test system: OVCAR-4
OVCAR-5 = test system: OVCAR-5
OVCAR-8 = test system: OVCAR-8
RXF 393 = test system: RXF 393
RXF 631 = test system: RXF 631
SF-268 = test system: SF-268
SF-295 = test system: SF-295
SF-539 = test system: SF-539
SK-MEL-28 = test system: SK-MEL-28
SK-MEL-5 = test system: SK-MEL-5
SN12C = test system: SN12C
SNB-19 = test system: SNB-19
SNB-75 = test system: SNB-75
SNB-78 = test system: SNB-78
SR = test system: SR
SW-620 = test system: SW-620
TK-10 = test system: TK-10
U-251 = test system: U-251
UACC-257 = test system: UACC-257
UACC-62 = test system: UACC-62
UO-31 = test system: UO-31
XF498 = test system: XF498
A498 = test system: A498
EKVX = test system: EKVX
HCT-15 = test system: HCT-15
KM-20L2 = test system: KM-20L2
NCI-H226 = test system: NCI-H226
SK-MEL-2 = test system: SK-MEL-2
SK-OV-3 = test system: SK-OV-3

C=C(C(=C)N1N=NC2C3CCC(C3)C21)N1N=NC2C3CCC(C3)C21 (stereo not drawn)
GI50 (786-0): > 100 µM (inactive)
GI50 (A549): > 100 µM (inactive)
GI50 (ACHN): > 100 µM (inactive)
GI50 (CAKI-1): > 100 µM (inactive)
GI50 (CCRF-CEM): 24.9 µM (inactive)
GI50 (COLO 205): > 100 µM (inactive)
GI50 (DLD-1): > 100 µM (inactive)
GI50 (DMS-114): > 100 µM (inactive)
GI50 (DMS-273): > 100 µM (inactive)
GI50 (HCC 2998): > 100 µM (inactive)
GI50 (HCT-116): > 100 µM (inactive)
GI50 (HL-60): 16.9 µM (inactive)
GI50 (HOP-18): > 100 µM (inactive)
GI50 (HOP-62): > 100 µM (inactive)
GI50 (HOP-92): > 100 µM (inactive)
GI50 (HT-29): > 100 µM (inactive)
GI50 (IGROV-1): > 100 µM (inactive)
GI50 (K562): 65.2 µM (inactive)
GI50 (KM12): > 100 µM (inactive)
GI50 (LOX IMVI): 68.5 µM (inactive)
GI50 (LXFL 529): > 100 µM (inactive)
GI50 (M14): > 100 µM (inactive)
GI50 (M19-MEL): > 100 µM (inactive)
GI50 (MOLT-4): 41.1 µM (inactive)
GI50 (Malme-3M): > 100 µM (inactive)
GI50 (NCI-H23): > 100 µM (inactive)
GI50 (NCI-H460): > 100 µM (inactive)
GI50 (NCI-H522): 66.5 µM (inactive)
GI50 (OVCAR-3): > 100 µM (inactive)
GI50 (OVCAR-4): > 100 µM (inactive)
GI50 (OVCAR-5): > 100 µM (inactive)
GI50 (OVCAR-8): > 100 µM (inactive)
GI50 (RXF 393): > 100 µM (inactive)
GI50 (RXF 631): > 100 µM (inactive)
GI50 (SF-268): > 100 µM (inactive)
GI50 (SF-295): > 100 µM (inactive)
GI50 (SF-539): > 100 µM (inactive)
GI50 (SK-MEL-28): > 100 µM (inactive)
GI50 (SK-MEL-5): > 100 µM (inactive)
GI50 (SN12C): > 100 µM (inactive)
GI50 (SNB-19): > 100 µM (inactive)
GI50 (SNB-75): 55.1 µM (inactive)
GI50 (SNB-78): > 100 µM (inactive)
GI50 (SR): 38.7 µM (inactive)
GI50 (SW-620): > 100 µM (inactive)
GI50 (TK-10): > 100 µM (inactive)
GI50 (U-251): > 100 µM (inactive)
GI50 (UACC-257): > 100 µM (inactive)
GI50 (UACC-62): > 100 µM (inactive)
GI50 (UO-31): > 100 µM (inactive)
GI50 (XF498): > 100 µM (inactive)

CCOC(=O)c1cn2c([nH]c3ccccc32)c(C#N)c1=O
GI50 (786-0): > 100 µM (inactive)
GI50 (A498): > 100 µM (inactive)
GI50 (A549): > 100 µM (inactive)
GI50 (ACHN): > 100 µM (inactive)
GI50 (CAKI-1): > 100 µM (inactive)
GI50 (CCRF-CEM): 52.4 µM (inactive)
GI50 (COLO 205): 41.6 µM (inactive)
GI50 (DLD-1): 99.5 µM (inactive)
GI50 (DMS-273): > 100 µM (inactive)
GI50 (EKVX): > 100 µM (inactive)
GI50 (HCC 2998): > 100 µM (inactive)
GI50 (HCT-116): 80.4 µM (inactive)
GI50 (HCT-15): > 100 µM
GI50 (HL-60): 25.8 µM (inactive)
GI50 (HOP-18): > 100 µM (inactive)
GI50 (HOP-62): > 100 µM (inactive)
GI50 (HOP-92): > 100 µM (inactive)
GI50 (HT-29): > 100 µM (inactive)
GI50 (IGROV-1): > 100 µM (inactive)
GI50 (K562): > 100 µM (inactive)
GI50 (KM-20L2): > 100 µM (inactive)
GI50 (KM12): > 100 µM (inactive)
GI50 (LOX IMVI): 25.7 µM (inactive)
GI50 (LXFL 529): > 100 µM (inactive)
GI50 (M14): > 100 µM (inactive)
GI50 (M19-MEL): > 100 µM (inactive)
GI50 (MOLT-4): > 100 µM (inactive)
GI50 (Malme-3M): > 100 µM (inactive)
GI50 (NCI-H226): > 100 µM (inactive)
GI50 (NCI-H23): > 100 µM (inactive)
GI50 (NCI-H460): 47 µM (inactive)
GI50 (NCI-H522): > 100 µM (inactive)
GI50 (OVCAR-3): > 100 µM (inactive)
GI50 (OVCAR-4): > 100 µM (inactive)
GI50 (OVCAR-5): > 100 µM (inactive)
GI50 (OVCAR-8): > 100 µM (inactive)
GI50 (RXF 393): > 100 µM (inactive)
GI50 (RXF 631): > 100 µM (inactive)
GI50 (SF-268): > 100 µM (inactive)
GI50 (SF-295): > 100 µM (inactive)
GI50 (SF-539): > 100 µM (inactive)
GI50 (SK-MEL-28): > 100 µM (inactive)
GI50 (SK-MEL-2): > 100 µM (inactive)
GI50 (SK-MEL-5): > 100 µM (inactive)
GI50 (SK-OV-3): > 100 µM (inactive)
GI50 (SN12C): > 100 µM (inactive)
GI50 (SNB-19): > 100 µM (inactive)
GI50 (SNB-75): > 100 µM (inactive)
GI50 (SNB-78): > 100 µM (inactive)
GI50 (SR): > 100 µM (inactive)
GI50 (SW-620): 17.1 µM (inactive)
GI50 (TK-10): > 100 µM (inactive)
GI50 (U-251): > 100 µM (inactive)
GI50 (UACC-257): > 100 µM (inactive)
GI50 (UACC-62): > 100 µM (inactive)
GI50 (UO-31): 98.2 µM (inactive)
GI50 (XF498): > 100 µM (inactive)

— ChEMBL document CHEMBL1201862, “PubChem BioAssay data set” (2004)
